In paper PMC11435135, “Diagnosis of Prostate Cancer with a Neurotensin–Bombesin Radioligand Combination—First Preclinical Results” (Pharmaceutics, 2024):

Key:
PC-3 cells = experiment: Uptake/internalization of [99mTc]Tc-DT11 in PC-3 cells; format: cell-based, human; conditions: radioligand alone, 1 h at 37 °C
Description: The day preceding the experiment, PC-3 cells were transferred in 6-well plates (1 × 10^6 cells in 3 mL culture medium per well), and the plates were positioned in the incubator. On the day of the experiment, the plates were placed on ice and the supernatant was aspirated and discarded. The cells were rinsed with 2 × 2 mL ice-cold internalization medium (IM, RPMI-1640 with 1% FBS) and the plates were placed on the bench. Warm IM (1.2 mL at 37 °C) was added to the wells, followed by either warm IM (150 µL—3 upper wells, total series) or excess NT in IM (150 µL to a final concentration of 1 µM—3 lower wells, non-specific series). In a last step, [^99mTc]Tc-DT11 in phosphate-buffered saline with 0.5% bovine serum albumin (PBS-BSA) was added to all plates (250 fmol peptide, ≈100,000 cpm). Cells were incubated for 1 h at 37 °C in an Incubator-Orbital Shaker unit (MPM Instr. SrI, Bernareggio, Milan, Italy). Incubation was interrupted by placing the plates on ice and collecting the supernatants in separate plastic tubes. The cells were rinsed with ice-cold PBS-BSA (1 mL) and the liquid was collected and combined with the respective supernatant tubes. The plates were placed on the bench and incubated 2 × 5 min with acid buffer (2 × 600 µL, 50 mM Gly in 0.1 M NaCl, pH 2.8). Supernatants were again collected and combined in individual tubes (membrane-bound fractions). Cells were rinsed with ice-cold PBS-BSA (1 mL), which was aspirated and discarded. Finally, the cells were treated with 2 × 600 µL 1 M NaOH, detached, collected and combined in separate tubes (internalized fractions). The radioactivity of all tubes was measured in the gamma counter. The percentage of specific membrane-bound and internalized fractions (their sum corresponding to specific cell-uptake) vs. total radioactivity added per well were calculated by subtracting non-specific values from totals. Results were expressed as average values ± standard deviation (sd) from 3 independent experiments performed in triplicate.

PC-3 xenografts = system: PC-3 xenografts; parameters: species or system mice; conditions: mouse, in vivo
Description: The biodistribution of [^99mTc]Tc-DT11 was studied in male severe combined immunodeficiency (SCID) mice (11 mice 6-weeks of age on arrival date, 18 ± 4 g, NCSR “Demokritos” Animal House, Athens, Greece) bearing PC-3 xenografts in their flanks. Tumor induction was achieved by subcutaneous injection of a PC-3 cell suspension (12 × 10^6 cells in 150 µL PBS) in their flanks. The animals were kept under aseptic conditions and, 3 weeks later, developed palpable masses at the inoculation sites (150 ± 50 mg); biodistribution was then conducted. On the day of the experiment, animals were divided into three groups: controls (n = 4), Entresto® (n = 4) and block (n = 3). All mice were injected in the tail vein with a bolus of [^99mTc]Tc-DT11 (100 µL, 185 kBq, 5 pmol total peptide in vehicle). […] Blood was collected from the heart, and tumors, organs and tissue samples of interest were excised and weighted, and their radioactivity content was measured together with the proper standards of the injected activity in the gamma counter. The percent of injected activity per gram (%IA/g) was calculated, and the results were provided as mean %IA/g values ± sd for each group. […]

NTS1R = conditions: cited from earlier work
Excerpt: (§1) We decided to investigate the potential advantages–shortcomings of the “radioligand cocktail” approach in human prostate cancer, prompted by the reported co-expression of NTS1R and GRPR in this frequently occurring cancer type. For such a purpose, we opted for the PC-3 cell line to conduct our cell uptake studies as well as to induce subcutaneous xenografts in mice, as it co-expresses the two targets of interest. Based on our previous work on NTS1R- and GRPR-directed radioligands, we selected a cocktail consisting of [^99mTc]Tc-DT11 (NTS1R-specific) [[47] ...

GRPR = conditions: cited from earlier work
Excerpt: as §1

[1] = NTS1R-specific, % of added activity, mean ± sd, 3 experiments in triplicate

Substance	internalized fraction as share of cell-associated activity (PC-3 cells)	membrane-bound fraction as share of cell-associated activity (PC-3 cells)	internalized fraction (PC-3 cells; [1]) [%]	membrane-bound fraction (PC-3 cells; [1]) [%]	tumor-to-kidney ratio (PC-3 xenografts)	affinity to the respective receptor (NTS1R)	affinity to the respective receptor (GRPR)
N4-Lys(MPBA-PEG4)-Arg-Arg-Pro-Tyr-Ile-Leu-OH [[^99mTc]Tc-DT11, Tc-99m labeled DT11, NTS1R-specific neurotensin-based radioligand]	≈ 87%	≈ 13%	1.22 ± 0.26	0.18 ± 0.12	≈ 1.5	sub-nanomolar	
N4-PEG2-DPhe-Gln-Trp-Ala-Val-Gly-His-Leu-NHEt [[^99mTc]Tc-DB7, Tc-99m labeled DB7, GRPR-specific bombesin-based radioligand (GRPR antagonist)]							sub-nanomolar
